Results taken from article PMC8063965 (Journal of medicinal chemistry, 2021).
Values belong to the compound of their own block, whether it stands above or below them.

Experiments:
full-length hHDAC6 = target: T1, full-length hHDAC6 (Homo sapiens, UniProt Q9UBN7); test: EMSA activity-based inhibition assay, HDAC6; type: biochemical; conditions: for fold improvement of potency on moving the fluorine substituent: ortho- and meta-fluoro versus parent analog, selectivity was lost
T1 sequence (Q9UBN7 1-1215): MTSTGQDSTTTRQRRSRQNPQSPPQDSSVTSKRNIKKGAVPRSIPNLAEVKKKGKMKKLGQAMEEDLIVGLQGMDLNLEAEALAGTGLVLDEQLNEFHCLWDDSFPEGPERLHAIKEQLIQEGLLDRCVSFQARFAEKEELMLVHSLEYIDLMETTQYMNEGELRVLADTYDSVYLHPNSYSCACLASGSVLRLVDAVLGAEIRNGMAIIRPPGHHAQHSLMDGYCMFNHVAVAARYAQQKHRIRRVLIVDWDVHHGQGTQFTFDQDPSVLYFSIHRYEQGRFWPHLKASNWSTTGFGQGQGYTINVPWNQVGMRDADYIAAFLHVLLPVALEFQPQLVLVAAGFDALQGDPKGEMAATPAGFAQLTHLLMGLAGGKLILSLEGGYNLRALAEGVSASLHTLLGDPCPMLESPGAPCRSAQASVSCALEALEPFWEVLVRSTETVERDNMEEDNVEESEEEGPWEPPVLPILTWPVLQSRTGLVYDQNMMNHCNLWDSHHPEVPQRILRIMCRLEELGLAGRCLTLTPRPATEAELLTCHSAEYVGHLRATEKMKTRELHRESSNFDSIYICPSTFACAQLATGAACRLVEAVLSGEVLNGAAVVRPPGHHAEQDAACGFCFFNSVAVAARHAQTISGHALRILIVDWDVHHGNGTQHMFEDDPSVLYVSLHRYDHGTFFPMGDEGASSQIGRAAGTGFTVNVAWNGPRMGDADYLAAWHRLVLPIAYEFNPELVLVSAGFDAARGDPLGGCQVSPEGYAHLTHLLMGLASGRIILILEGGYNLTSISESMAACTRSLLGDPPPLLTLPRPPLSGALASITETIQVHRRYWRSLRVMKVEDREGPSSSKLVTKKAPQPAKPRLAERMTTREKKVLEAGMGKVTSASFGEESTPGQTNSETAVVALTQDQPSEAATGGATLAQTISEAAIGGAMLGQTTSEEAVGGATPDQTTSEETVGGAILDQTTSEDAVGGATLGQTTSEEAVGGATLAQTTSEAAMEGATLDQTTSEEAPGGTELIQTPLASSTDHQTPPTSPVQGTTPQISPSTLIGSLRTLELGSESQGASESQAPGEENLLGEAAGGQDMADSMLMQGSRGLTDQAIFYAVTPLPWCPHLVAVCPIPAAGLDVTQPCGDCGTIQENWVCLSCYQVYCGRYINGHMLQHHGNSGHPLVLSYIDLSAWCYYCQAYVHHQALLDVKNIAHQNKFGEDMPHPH

[1] = test system: Ac-α-tubulin in HeLa cells; test: Immunofluorescence assay, Ac-α-tubulin; type: cell-based; conditions: 6 h
drHDAC6 CD2 = target: T2, drHDAC6 CD2 (Danio rerio, UniProt F8W4B7); test: Fluorescence polarization; type: binding, Danio rerio (zebrafish); conditions: orthogonal fluorescence polarization assay
T2 sequence (F8W4B7 440-798 limits assumed): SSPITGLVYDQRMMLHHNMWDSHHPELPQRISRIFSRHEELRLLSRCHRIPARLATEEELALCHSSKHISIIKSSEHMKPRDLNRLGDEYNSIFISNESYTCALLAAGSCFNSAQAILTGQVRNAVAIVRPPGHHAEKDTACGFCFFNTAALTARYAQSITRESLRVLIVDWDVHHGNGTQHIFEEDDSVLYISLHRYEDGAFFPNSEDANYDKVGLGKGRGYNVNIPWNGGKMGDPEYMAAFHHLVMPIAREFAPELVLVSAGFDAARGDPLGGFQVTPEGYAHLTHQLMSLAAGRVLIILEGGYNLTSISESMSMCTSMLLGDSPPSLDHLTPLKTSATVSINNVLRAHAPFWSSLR

HDAC6 = target: T3, HDAC6 (Homo sapiens, UniProt Q9UBN7); test: Intact mass spectrometry analysis of the enzyme; conditions: intact mass spectrometry on treatment with compound
T3 sequence (Q9UBN7 1-1215): T1 sequence (Q9UBN7 1-1215)

[2] = test system: six leukemic cancer cells; test: Cytotoxicity assay; type: cell-based; conditions: 72 h, read-out: average anti-proliferative IC50
[3] = test system: 'normal' MRC9 lung fibroblasts; test: Cytotoxicity assay; type: cell-based; conditions: 72 h
[4] = test system: Ac-α-tubulin in MV4–11 cells; test: Western blot of Ac-α-tubulin; type: cell-based
[5] = test system: Ac-histone H3 in MV4–11 cells; test: Western blot of Ac-histones; type: cell-based
Ac-histone in HeLa cells = test: Immunofluorescence assay, Ac-histone; type: cell-based; conditions: 0.1 μM or 2 μM, 6 h
MV4–11 cells [6] = test: FACS apoptosis detection assay; type: cell-based
MV4–11 cells [7] = test: Detection of ROS generation; type: cell-based; conditions: MV4–11, 10 μM, up to 4 h, versus DMSO control
[8] = Mouse plasma stability assay; type: in vitro ADME; conditions: triplicate
[9] = Pooled human whole blood stability assay; type: in vitro ADME; conditions: triplicate

fold improvement of potency on moving the fluorine substituent (full-length hHDAC6): 2 fold
SMILES: O=C(NO)c1ccc(CN(Cc2ccccc2F)S(=O)(=O)c2cc(F)c(F)c(F)c2F)cc1 [Compound 13]

fold more potent against HDAC6 compared to 9 (full-length hHDAC6; relative to 9): 2 fold
SMILES: O=C(NO)c1ccc(CN(Cc2ccccn2)S(=O)(=O)c2cc(F)c(F)c(F)c2F)cc1 [Compound 14]

Further lines, the compound ahead of its results:

SMILES: O=C(NO)c1ccc(CN(Cc2cccc(F)c2)S(=O)(=O)c2cc(F)c(F)c(F)c2F)cc1 [Compound 12]
fold improvement of potency on moving the fluorine substituent (full-length hHDAC6): 2 fold

SMILES: O=C(CCCCCCNC(=O)c1cnc(N(c2ccccc2)c2ccccc2Cl)nc1)NO [Citarinostat, reference compound]
accumulation of Ac-α-tubulin (red stain) at 2 μM [1]: slightly less prominent

SMILES: O=C(NO)c1ccc(CN(Cc2ccncc2)S(=O)(=O)c2c(F)c(F)c(F)c(F)c2F)cc1 [Compound 8]
HDAC6 selectivity (full-length hHDAC6; against 4 representative HDAC homologs (Table 1)): > 71 fold

SMILES: O=C(NO)c1ccc(CN(Cc2cccnc2)S(=O)(=O)c2cc(F)c(F)c(F)c2F)cc1 [TO-317]
potency of interaction with drHDAC6 CD2 (FP) (drHDAC6 CD2): 4 nM
covalent modification of the enzyme (HDAC6): no covalent modification of the enzyme was observed
IC50 [2]: < 2000 nM
activity in normal cells [3]: minimal activity
Ac-α-tubulin levels at 0.25 μM ([4]; MV4–11 cells, 0.25 μM, 6 hours): significant increase
lowest concentration giving preferential increase in acetylated α-tubulin ([4]; dose-dependent, cells not given): 50 nM
Ac-histones accumulation ([5]; MV4–11 cells, at 0.25 μM, 6 hours): minimal accumulation
concentration required to observe distinct acetylation of H3 histone ([5]; cells not given): ~ 0.75 μM
accumulation of Ac-α-tubulin (red stain) at 2 μM [1]: significant accumulation
levels of Ac-histone (green stain) (Ac-histone in HeLa cells): do not change significantly
early and late apoptotic cell populations, combined (MV4–11 cells [6]; MV4–11, 0.25 μM): 11%
early and late apoptotic cell populations, combined (MV4–11 cells [6]; MV4–11, 2 μM): 65%
early and late apoptotic cell populations, combined (MV4–11 cells [6]; MV4–11, 4 μM): 73%
necrosis (UL sub-population) (MV4–11 cells [6]; MV4–11, across the range of concentrations tested, versus DMSO control): does not show statistically different changes to necrosis
ROS generation (MV4–11 cells [7]): markedly increased levels of ROS after 2 h incubation
Remaining percentage concentration, 0 min [8]: 100%
Remaining percentage concentration, 0 min [9]: 100%
